The values below come from PubChem BioAssay (NCI).

Assay in all cases: NCI anticancer screen, dose series, 48 h
The subject of experiment [1] is HCT-15 colon.
Experiment [2] relates to CCRF-CEM leukemia.
The test system of experiment [3] is KM20L2 colon.
For experiment [4], the system named is SN12C renal.
Experiment [5] deals with U251 CNS.
Experiment [6] concerns SK-MEL-2 melanoma.
Experiment [7] deals with HOP-62 NSCLC.
The subject of experiment [8] is MDA-MB-231 breast.
Experiment [9] has as its system DLD-1 colon.

“And” between values parts separate entries of the source, which are not always exact repeats. Identical values can stand only once.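 Cultured in 96-well plates, cells were exposed to test compound for 48 hours across five concentrations. At the GI50, growth is halved. Definition used: TGI = concentration required for complete inhibition of growth.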 Where only a bound is given, the exact number is not on record here.

`COc1ccc(O)c(C#N)c1C#N`: the TGI in experiment [1], in experiment [2], in experiment [3], in experiment [4], in experiment [5] and in experiment [6] was above 100 µM throughout. In experiment [7], the TGI was above 100 µM.
As to `O=C1/C(=C/c2ccc(O)cc2)COc2ccc(-c3ccccc3)cc21`, the GI50 is 2.89 µM in [1]; 0.237 µM in [2]; 7.29 µM in experiment [4]; 8.25 µM in experiment [8]; 5.1 µM in experiment [5]; 16.8 µM in experiment [6]. Further, in [7], the GI50 is 19.3 µM. The TGI in experiment [1] came to 12.4 µM; in experiment [4], 24.8 µM; in experiment [8], 27.3 µM; in experiment [5] it was 17.8 µM; in experiment [6], 39 µM; in experiment [7] it was 36.4 µM.
In the case of `O=C(CCl)N1c2ccccc2Sc2c1ccc1ccccc21`, the GI50 was 1.92 µM in [1]; 0.696 µM in [2]; 1.79 µM in [4]; 2.09 µM in [8]; 1.65 µM in [5]; 17.4 µM in experiment [6]. Moreover, the GI50 in experiment [7] was 3.29 µM. For the same compound, the TGI in [1] stood at 4.83 µM; in experiment [2], 36.6 µM; in experiment [4] it was 3.27 µM; in [8] it was 4.36 µM; in experiment [5], 3.13 µM; in experiment [6], 32.9 µM. The compound further showed a TGI in experiment [7] of 12.9 µM.
Take `Clc1nc(Cl)c2c(ncn2C/C=C\Cn2cnc3c(Cl)nc(Cl)nc32)n1`: the GI50 in experiment [1] was 1.5 µM; in [2], 0.573 µM; in experiment [4] it was 1.8 µM; in experiment [8], 1.88 µM; in [5], 1.85 µM; in experiment [6], 1.41 µM. The GI50 in experiment [7] was 2.35 µM. Also, the TGI in experiment [1] is 3.2 µM; in experiment [2], 2.57 µM; in [4], 6.14 µM; in experiment [8], 3.65 µM; in experiment [5], 3.91 µM; in experiment [6] it was 2.73 µM. In experiment [7], this compound had a TGI of 5.21 µM.
Consider `COc1ccc2c(c1)OC(N(C(C)=O)C(C)=O)=C(C#N)C2c1ccc(F)cc1` (stereo not drawn), for which the GI50 is 0.683 µM in experiment [1]; 2.13 µM in experiment [2]; 6.48 µM in [4]; 2.4 µM in [8]; 1.82 µM in [5]; 1.08 µM in [6]. For the same compound, the GI50 in experiment [7] is 1.7 µM. In addition, the TGI is above 100 µM in [1]; above 100 µM in experiment [2]; above 100 µM in experiment [4]; above 100 µM in experiment [8]; 54.8 µM in experiment [5]; above 100 µM in experiment [6]. This compound displayed a TGI in [7] above 100 µM.
In the case of `CN(C)C(=S)N=Nc1c(O)[nH]c2ccccc12`, the GI50 in experiment [1] is 0.455 µM; in [2], 0.298 µM; in experiment [4], 0.578 µM; in experiment [8], 1.11 µM; in [5] it was 0.392 µM; in experiment [6], 0.8 µM. Besides, the GI50 in experiment [7] was 0.708 µM. Further, the TGI in [1] is 23.4 µM; in [4], 17.9 µM; in experiment [8], 17.6 µM; in experiment [5], 27.6 µM; in experiment [6], 19.8 µM; in experiment [7], 14.7 µM.
Regarding `Oc1ccc(CCCCCCc2ccc(O)cc2)cc1`, the GI50 in experiment [1] is 12.3 µM; in experiment [2] it was 0.0471 µM; in experiment [4], 9.22 µM; in experiment [8] it was 9.66 µM; in experiment [5] it was 5.61 µM; in experiment [6], 16 µM. In experiment [7], the GI50 was 10.3 µM. Moreover, the TGI came to 26.6 µM in experiment [1]; 32.8 µM in [2]; 24.3 µM in [4]; 25.9 µM in [8]; 19.8 µM in experiment [5]; 35.5 µM in [6]. Moreover, the TGI in [7] was determined as 23.4 µM.
Regarding `Cc1cc(C(C#N)c2ccc(Cl)cc2)c(Cl)cc1NC(=O)c1cc(I)cc(I)c1O` (stereo not drawn), the GI50 in experiment [1] was 5.25 µM and 15.8 µM; in experiment [2], 3.87 µM and 17.8 µM; in [4], 3.57 µM and 15.4 µM; in [8], 5.48 µM and 14.2 µM; in [5], 6.1 µM and 16 µM; in experiment [6], 7.82 µM and 14.9 µM. The GI50 in experiment [7] was 13.9 µM and 15.2 µM. Moreover, the TGI in experiment [1] was 19.8 µM and 31.7 µM; in [2], 17 µM and 47.1 µM; in [4] it was 35.6 µM and 39.2 µM; in [8] it was 23.9 µM and 37.9 µM; in experiment [5], 33.4 µM and 38.2 µM; in experiment [6] it was > 100 µM and 40 µM. The TGI in [7] was 34.4 µM and 32.4 µM.
Turning to `CO/N=C(\C)c1ccc(Nc2cc(-c3ccccc3)nc3c(O)cccc23)cc1`, the GI50 in [1] was 16.2 µM; in [2], 6.64 µM; in experiment [4], 16 µM; in [8], 15 µM; in [5], 13.3 µM; in experiment [6], 28 µM. For the same compound, the GI50 in experiment [7] is 17.6 µM. The TGI in experiment [1] is 32.5 µM; in experiment [2], 22.6 µM; in experiment [4], 30.6 µM; in experiment [8], 30.6 µM; in experiment [5] it was 27.2 µM; in [6], above 100 µM. Further, the TGI in [7] stood at 34.8 µM.
On to `CC[C@H](CC#N)OC(=O)N[C@@H](C)c1cccc(NC(=O)Nc2ccc(-c3cnco3)c(OC)c2)c1`, for which the GI50 is 0.119 µM in experiment [1]; below 0.023 µM in experiment [2]; 0.111 µM in [4]; 0.204 µM in [8]; 0.0406 µM in [5]; 4.05 µM in experiment [6]. For the same compound, the GI50 in experiment [7] was 0.0856 µM. The TGI is above 51.4 µM in experiment [1]; 35.8 µM in experiment [2]; 79.3 µM in [4]; above 89.5 µM in experiment [8]; 44.8 µM in experiment [5]; 34.8 µM in [6]. This compound yielded a TGI in experiment [7] of 36.8 µM.
In the case of `O=C(O)c1cc(=O)c2[nH]c3ccccc3c2s1`, the TGI in [1], in [2], in [3], in experiment [4], in experiment [9] and in experiment [6] was above 100 µM each time. In [7], this compound gave a TGI above 100 µM.
